Reference: patent US12303524B2, “Compositions comprising S-adenosylmethionine and a gallic acid ester” (MSI-195 HOLDINGS, LLC, priority 2012, dated 2025)

How the values were obtained:
Caco-2 cell monolayers = assay: Permeability of SAMe across Caco-2 cell monolayers with propyl gallate (Example 3); details: for apparent permeability coefficient Papp, apical to basolateral / apparent permeability coefficient Papp, basolateral to apical: SAMe salt alone
Experimental: The Caco-2 cell line is derived from a human colorectal carcinoma and is widely used for in vitro cell culture models for the study of gastrointestinal drug absorption (Stewart, B., (1995) Pharm. Res. 12:693). In these models, pure cell lines are grown on a semi-permeable membrane. Drug formulations are placed on the apical or basolateral side of the cell monolayer and transport is determined via measurement of drug concentrations on the other side of the membrane.
The Caco-2 cell line utilized here was from the American Type Culture Collection (ATCC). Caco-2 cells are grown in Dulbecco's modified Eagle's medium (DMEM, Gibco) supplemented with 20% FBS (fetal bovine serum, Gibco), 100 uM non-essential amino acids (NEAA, Gibco) and 2 mM L-glutamine (Gibco). A Beckton Dickinson BIOCOAT® HTS Caco-2 Assay System Kit was used resulting in 6.6×10^5 cells/cm^2 seeding density (BIOCOAT is a registered trademark of Collaborative Biomedical Products, Inc., Bedford, Massachusetts, USA). The cells used in transport studies were grown for 3 days before the experiments. The culturing conditions were 37° C. in an atmosphere of 5% CO2 and 100% humidity.
A 2 mM aqueous solution of SAMe disulfate tosylate was added on the apical or basolateral side according to the manufacturer's procedure for the Caco-2 kit.
The permeability (Papp) of SAMe is calculated using the following formula: […]
Where dQ/dt is the rate of permeation, Co is the initial concentration of test agent, and A is the area of the monolayer.

[1] = PAMPA permeability of SAMe with and without propyl gallate (Example 4); assay type: in vitro ADME; details: for Average Effective Permeability: SAMe 2 mM, 5 hr
Experimental: Using a PAMPA (parallel artificial membrane permeability assay) model, the permeability of SAMe was measured in the presence and absence of propyl gallate.
PAMPA methods were used to determine the permeability of substances from a donor compartment, through a lipid-infused artificial membrane into an acceptor compartment. A multi-well microtitre plate was used for the donor and a membrane/acceptor compartment is placed on top. At the beginning of the test, SAMe disulfate tosylate (with or without different concentrations of propyl gallate as indicated in Table 2 below) was added to the donor compartment, and the acceptor compartment remained drug-free. After an incubation period, the compartments were separated and the amount of SAMe was measured in each compartment. Mass balance allows calculation of SAMe that remains in the membrane.

[2] = Beagle pharmacokinetics of SAMe tablets with various doses of propyl gallate (Example 6); details: for AUC(0-inf.) ± SD / AUC(0-t) / Cmax average of individuals / T1/2 ± SD / Tmax ± SD: oral, fasted beagles
Experimental: Tablets comprising SAMe and various amounts of propyl gallate were generated by mixing S-adenosyl-L-methionine disulfate tosylate granules (equivalent to 400 mg of SAMe ion) with the various amounts of propyl gallate listed in Table 4 below. Each mixture was pressed into a tablet and coated followed by dissolution profiling and in vivo pharmacokinetic analysis using beagle dogs.
For in vivo studies, fasted male beagle dogs (7-10 kg) were used as described above. Each group (6 dogs for SAMe/propyl gallate and 6 dogs for the SAMe control lacking propyl gallate) were dosed with a single orally administered enteric coated tablet, under fasted conditions, followed by 5 mL of purified water orally with a syringe to facilitate swallowing. Pharmacokinetic blood samples (2 mL each) for SAMe analysis were collected from the jugular vein using the following time points: pre-dose, 20 and 40 minutes, 1, 1.5, 2, 3, 4, 6, and 8 hours after treatment. The venipuncture blood samples were collected into tubes containing the anticoagulant K2-EDTA, and stored on wet ice pending processing. Following collection, samples were centrifuged (at 4° C.) to separate the plasma fraction from the blood cells. The resulting plasma fraction was recovered and stored frozen (at −80° C.) using polypropylene tubes pending bioanalytical analysis.
The concentration of SAMe in dog plasma was determined using the well established LC/MS/MS method. This method employs stable-isotope dilution liquid chromatography-electrospray […] tandem mass spectrometry (LC-ESI-MS/MS) to determine SAMe and SAH in plasma. The analysis used to calculate the main pharmacokinetic parameters (Cmax, Tmax and AUC) was conducted using GraphPad Prism® 5 software.

[3] = background statement; cited from earlier work
[4] = Plasma SAMe in beagles after tablets of SAMe co-formulated with alkyl gallates (Example 1); assay type: in vivo, Beagle dogs; details: single enteric coated tablet, 400 mg SAMe ion co-formulated with 25 mg gallic acid ester, fasted male beagles, FIG. 1
Experimental: Tablets comprising SAMe and various alkyl gallates of different chemical structure were generated by mixing SAMe with either methyl gallate, ethyl gallate, butyl gallate, isobutyl gallate, isoamyl gallate or octyl gallate (see structures below). Tablets were then administered to Beagle dogs and blood samples were withdrawn over time. Analysis of concentrations of SAMe in plasma was used to compare the effects of these gallic acid esters on the uptake of orally administered SAMe in the blood.
Tablets were generated by mixing 400 mg SAMe ion (from SAMe disulfate tosylate) with 25 mg gallic acid ester along with excipients (microcrystalline cellulose, sodium starch glycolate, silicon dioxide, and magnesium stearate) to make up the ˜1025 mg tablet. A commercial seal coat and then a commercial enteric coat was applied to the tablets prior to dissolution testing. Detailed dissolution profiling was performed according to USP standards at either pH 6.8 or 6.0 on each set of tablets to ensure that adequate dissolution was achieved prior to in vivo pharmacokinetic analysis.
The study protocol was approved by the institution's Animal Care Committee, and all animals were cared for according to regulations proposed by Agriculture Canada and the USDA.
Ten different formulations were tested in the present study. 400 mg SAMe co-formulated with 25 mg propyl gallate was compared to: SAMe control tablets (i.e., with no propyl gallate); SAMe tablets co-administered with separate 25 mg propyl gallate tablets; a commercially available SAMe product (400 mg); or 400 mg SAMe with 25 mg of either methyl gallate, ethyl gallate, butyl gallate, isobutyl gallate, isoamyl gallate or octyl gallate.

[5] = Plasma SAMe in beagles after capsules of SAMe with gallate-related molecules (Example 2); assay type: in vivo, Beagle dogs; details: single capsule, 100 mg SAMe ion with 100 mg agent, versus BHT, propyl paraben and gallic acid, FIGS. 2A and 2B
Experimental: BHT, propyl paraben and propyl gallate are food-grade antioxidants which have often been used in combination. […] The capsules also contained additional excipients (Microcrystalline cellulose, Sodium Starch Glycolate, Colloidal Silicon Dioxide, and Magnesium Stearate). Capsules were manually filled and in some embodiments, a layer of commercial seal coat was applied to the capsules using a fluid bed coater. Beagle dogs were administered a single orally delivered dose as described above.

[6] = control tablet 400 mg SAMe, 0 mg Propyl Gallate
[7] = tablet 400 mg SAMe, 6.25 mg Propyl Gallate
[8] = tablet 400 mg SAMe, 25 mg Propyl Gallate
[9] = tablet 400 mg SAMe, 100 mg Propyl Gallate

In the case of `C[S+](CC[C@H](N)C(=O)[O-])C[C@H]1O[C@@H](n2cnc3c(N)ncnc32)[C@H](O)[C@@H]1O.O=S(=O)(O)CCCCS(=O)(=O)O` (stereo partly drawn) [SAMe 1,4 butanedisulfonate], the “apparent permeability coefficient Papp, apical to basolateral” value (Caco-2 cell monolayers) is reported as 5e-07 cm/s and the “apparent permeability coefficient Papp, basolateral to apical” value (Caco-2 cell monolayers) is reported as 6e-07 cm/s.

For `C[S+](CC[C@H](N)C(=O)[O-])C[C@H]1O[C@@H](n2cnc3c(N)ncnc32)[C@H](O)[C@@H]1O` (stereo partly drawn) [SAMe, S-adenosyl-L-methionine], the “Average Permeability Coefficient Apical→Basolateral” value (Caco-2 cell monolayers; Caco-2) was 1.6e-06 cm/s, the “Average Permeability Coefficient Basolateral→Apical” value (Caco-2 cell monolayers; Caco-2) was 1.7e-06 cm/s and the “transport of SAMe across the PAMPA membrane” value [1] was “essentially no transport”. For the same molecule, the “Average Effective Permeability” value ([1]; Propyl Gallate 0 mM) was 4.2e-07 cm/s, the “Average Effective Permeability” value ([1]; Propyl Gallate 0.2 mM) was 2e-07 cm/s and the “Average Effective Permeability” value ([1]; Propyl Gallate 2 mM) was 4.8e-07 cm/s. For the same molecule, the “AUC(0-inf.) ± SD” value [2, 6] was 15,186 ± 6,831 hr*ng/mL, the “AUC(0-t)” value [2, 6] was 14,756 hr*ng/mL and the “Cmax average of individuals” value [2, 6] was 6731 ng/mL. The “T1/2 ± SD” value [2, 6] was 1.4 ± 0.4 h, the “Tmax ± SD” value [2, 6] was 1.8 ± 0.7 h and the “AUC(0-inf.) ± SD” value [2, 7] was 21,734 ± 9848 hr*ng/mL. For the same molecule, the “AUC(0-t)” value [2, 7] was 21,395 hr*ng/mL, the “Cmax average of individuals” value [2, 7] was 11,269 ng/mL and the “T1/2 ± SD” value [2, 7] was 1.4 ± 0.5 h. The “Tmax ± SD” value [2, 7] was 1.4 ± 0.8 h, the “AUC(0-inf.) ± SD” value [2, 8] was 25,159 ± 13,033 hr*ng/mL and the “AUC(0-t)” value [2, 8] was 24,847 hr*ng/mL. For the same molecule, the “Cmax average of individuals” value [2, 8] was 15,333 ng/mL, the “T1/2 ± SD” value [2, 8] was 1.5 ± 0.4 h and the “Tmax ± SD” value [2, 8] was 1.2 ± 0.5 h. For the same molecule, the “AUC(0-inf.) ± SD” value [2, 9] was 34,305 ± 18,484 hr*ng/mL, the “AUC(0-t)” value [2, 9] was 34,078 hr*ng/mL and the “Cmax average of individuals” value [2, 9] was 18,700 ng/mL. For the same molecule, the “T1/2 ± SD” value [2, 9] was 1.0 ± 0.2 h, the “Tmax ± SD” value [2, 9] was 1.6 ± 0.7 h and the “uptake of exogenous SAMe” value [3] was < 5%.

In the case of `CCCCOC(=O)c1cc(O)c(O)c(O)c1` [butyl gallate], the “maximum SAMe plasma concentration (Cmax), uptake into the plasma” value (shortened to “maximum SAMe plasma concentration (Cmax)”) [4] is reported as “did not result in pharmacokinetics even close to that of SAMe-propyl gallate formulations”.

In the case of `CCOC(=O)c1cc(O)c(O)c(O)c1` [ethyl gallate], the “maximum SAMe plasma concentration (Cmax)” value [4] is reported as “superior uptake into the plasma”.

For `CC(C)CCOC(=O)c1cc(O)c(O)c(O)c1` [isoamyl gallate], the “maximum SAMe plasma concentration (Cmax)” value [4] was “superior uptake into the plasma”.

In the case of `CCCCCCCCOC(=O)c1cc(O)c(O)c(O)c1` [octyl gallate], the “maximum SAMe plasma concentration (Cmax)” value [4] is reported as “superior uptake into the plasma”.

In the case of `CCCOC(=O)c1cc(O)c(O)c(O)c1` [propyl gallate], the “effect of propyl gallate on SAMe transport across the PAMPA membrane” value ([1]; propyl gallate at 2.0 mM) is reported as “no effect on SAMe transport”, the “relationship of propyl gallate dose with SAMe uptake in vivo” value ([2]; dog, in vivo) is reported as “dose-response relationship with SAMe uptake in vivo” and the “plasma SAMe Cmax and AUC, SAMe uptake into the blood” value [5] is reported as “superior and surprising ability of propyl gallate to increase SAMe uptake into the blood”. The “maximum SAMe plasma concentration (Cmax)” value [4] was “superior uptake into the plasma”.

For “S-adenosyl-L-methionine disulfate tosylate [SAMe disulfate tosylate]”, the “apparent permeability coefficient Papp, apical to basolateral” value (Caco-2 cell monolayers) was 4.1e-07 cm/s and the “apparent permeability coefficient Papp, basolateral to apical” value (Caco-2 cell monolayers) was 5e-07 cm/s.
